Measured values from PubChem BioAssay AID300 (DTP/NCI, 2004).
Several values for one entry are separate records, joined by “and”; a condition that tells them apart may be missing. Identical values can stand only once. Records with an inconclusive call do not appear. How the source made its calls: active means survival T/C of 150% or more; inactive means T/C below 125% in these data. *1 amine or outer side, *2 acyl side, *3 side chain or, on linkers, in order; H or OH if unused. Where a SMILES comes first, the peptide text is derived from it. Bridges are numbered along the chain shown (N, C = ends). Roman numbers before positions name the chains, in order. [ ]: non-standard residue; d: D form. Actinocin(9to1) = Cc1c2oc3c(C)ccc(C(=O)[*:1])c3nc-2c(C(=O)[*:2])c(N)c1=O; NMeV = CN[CH](C(=O)O)C(C)C; Sar = CNCC(=O)O

System: Madison 109 lung carcinoma i.m., mice, median survival
Experiment: NCI In Vivo Anticancer Drug Screen. Data for tumor model Madison 109 Lung Carcinoma (intramuscular) in unknown mice
Conditions: endpoint: median survival time, higher = longer survival
Experimental: The antitumor activity of compounds was measured in mice bearing transplantable tumors. Survival or tumor size were measured and the results are expressed as the measurement made in the treated group (T) divided by the measurement made in the vehicle treated control group (C). The tumor model used in this assay is Madison 109 Lung Carcinoma (intramuscular) in unknown mice

[1] = dose: 10.0 mg/kg/injection, schedule: Q02DX009 (ip), vehicle: water
[2] = dose: 20.0 mg/kg/injection, schedule: Q02DX009 (ip), vehicle: water
[3] = dose: 80.0 mg/kg/injection, schedule: Q02DX009 (ip), vehicle: water
[4] = dose: 4.0 mg/kg/injection, schedule: Q01DX009 (ip), vehicle: water
[5] = dose: 25.0 mg/kg/injection, schedule: Q01DX009 (ip), vehicle: water
[6] = dose: 50.0 mg/kg/injection, schedule: Q01DX009 (ip), vehicle: water

Measured: T/C

O=[N+]([O-])c1ccc(Cl)cc1[N+](=O)[O-]
inactive: [1] 121 % of control | [2] 118 % of control | [3] 119 % of control

O=[N+]([O-])c1ccc(Cl)c([N+](=O)[O-])c1
inactive: dose: 10.0 mg/kg/injection, schedule: Q01DX009 (ip), vehicle: water 119 % of control | dose: 40.0 mg/kg/injection, schedule: Q01DX001 (ip), vehicle: water 116 % of control | dose: 40.0 mg/kg/injection, schedule: Q01DX009 (ip), vehicle: water 119 % of control | dose: 80.0 mg/kg/injection, schedule: Q01DX001 (ip), vehicle: water 100 % of control | dose: 80.0 mg/kg/injection, schedule: Q01DX009 (ip), vehicle: water 109 % of control | dose: 160.0 mg/kg/injection, schedule: Q01DX001 (ip), vehicle: water 109 % of control | dose: 160.0 mg/kg/injection, schedule: Q01DX009 (ip), vehicle: water 116 % of control | dose: 320.0 mg/kg/injection, schedule: Q01DX001 (ip), vehicle: water 119 % of control | dose: 640.0 mg/kg/injection, schedule: Q01DX001 (ip), vehicle: water 90 % of control

CN(C)/N=N/c1nc[nH]c1C(N)=O
inactive: dose: 200.0 mg/kg/injection, schedule: Q01DX009 (ip), vehicle: Klucel (hydroxypropylcellulose) (HPC) 121 % of control

COc1cccc2c1C(=O)c1c(O)c3c(c(O)c1C2=O)C[C@@](O)(C(=O)CO)C[C@@H]3OC1CC(N)C(O)C(C)O1 (stereo partly drawn)
inactive: dose: 0.25 mg/kg/injection, schedule: Q01DX005 (ip), vehicle: water 102 % of control | dose: 0.4 mg/kg/injection, schedule: Q01DX009 (ip), vehicle: water 98 % of control | dose: 0.5 mg/kg/injection, schedule: Q01DX005 (ip), vehicle: water 119 % of control and 120 % of control | dose: 0.63 mg/kg/injection, schedule: Q04DX003 (ip), vehicle: water 104 % of control | dose: 0.8 mg/kg/injection, schedule: Q01DX009 (ip), vehicle: water 104 % of control | dose: 1.0 mg/kg/injection, schedule: Q01DX005 (ip), vehicle: water 120 % of control | dose: 1.2 mg/kg/injection, schedule: Q01DX009 (ip), vehicle: water 105 % of control | dose: 1.25 mg/kg/injection, schedule: Q04DX003 (ip), vehicle: water 96 % of control | dose: 1.6 mg/kg/injection, schedule: Q01DX009 (ip), vehicle: water 102 % of control | dose: 2.5 mg/kg/injection, schedule: Q01DX005 (ip), vehicle: water 36 % of control | dose: 2.5 mg/kg/injection, schedule: Q04DX003 (ip), vehicle: water 101 % of control

Cc1c2oc3c(C)ccc(C(=O)NC4C(=O)NC(C(C)C)C(=O)N5CCCC5C(=O)N(C)CC(=O)N(C)C(C(C)C)C(=O)OC4C)c3nc-2c(C(=O)NC2C(=O)NC(C(C)C)C(=O)N3CCCC3C(=O)N(C)CC(=O)N(C)C(C(C)C)C(=O)OC2C)c(N)c1=O (stereo not drawn) (I: TVP[Sar][NMeV] / II: TVP[Sar][NMeV]; ester I:1-I:C, II:1-II:C; linker I:N-II:N via Actinocin(9to1); configuration not given here)
inactive: dose: 0.64 mg/kg/injection, schedule: Q01DX009 (ip), vehicle: water 118 % of control | dose: 0.84 mg/kg/injection, schedule: Q01DX009 (ip), vehicle: water 124 % of control

O=[N+]([O-])c1cccc([N+](=O)[O-])c1Cl
inactive: [1] 105 % of control | [2] 113 % of control | [3] 122 % of control | dose: 160.0 mg/kg/injection, schedule: Q02DX009 (ip), vehicle: water 112 % of control and 103 % of control

O=[N+]([O-])c1ccc([N+](=O)[O-])c(Cl)c1
inactive: [1] 122 % of control | [2] 122 % of control | dose: 40.0 mg/kg/injection, schedule: Q02DX009 (ip), vehicle: water 122 % of control | [3] 90 % of control

CC[C@H]1CN2CCc3cc(OC)c(OC)cc3[C@@H]2C[C@@H]1C[C@H]1NCCc2cc(OC)c(OC)cc21
inactive: dose: 2.0 mg/kg/injection, schedule: Q01DX009 (ip), vehicle: water 115 % of control | dose: 3.0 mg/kg/injection, schedule: Q01DX009 (ip), vehicle: water 115 % of control | [4] 112 % of control | dose: 6.0 mg/kg/injection, schedule: Q01DX009 (ip), vehicle: water 115 % of control

C/C(=N/N=C(N)N)c1ccc(NC(=O)Nc2ccc(/C(C)=N/N=C(N)N)cc2)cc1
inactive: [5] 115 % of control | [6] 106 % of control

O=c1[nH]cc(F)c(=O)[nH]1
inactive: dose: 5.0 mg/kg/injection, schedule: Q01DX009 (ip), vehicle: saline 94 % of control | dose: 10.0 mg/kg/injection, schedule: Q01DX009 (ip), vehicle: saline 88 % of control | dose: 15.0 mg/kg/injection, schedule: Q01DX009 (ip), vehicle: saline 123 % of control | dose: 20.0 mg/kg/injection, schedule: Q01DX009 (ip), vehicle: saline 113 % of control

O=C(O)c1c(Cl)c(Cl)c(Cl)c(Cl)c1-c1c2cc(I)c(=O)c(I)c-2oc2c(I)c(O)c(I)cc12
inactive: [4] 90 % of control | dose: 8.0 mg/kg/injection, schedule: Q01DX009 (ip), vehicle: water 102 % of control | [5] 100 % of control | dose: 32.0 mg/kg/injection, schedule: Q01DX009 (ip), vehicle: water 107 % of control | [6] 106 % of control | dose: 64.0 mg/kg/injection, schedule: Q01DX009 (ip), vehicle: water 99 % of control

Cc1c(N)nc([C@H](CC(N)=O)NC[C@H](N)C(N)=O)nc1C(=O)N[C@H](C(=O)N[C@H](C)[C@@H](O)[C@H](C)C(=O)N[C@H](C(=O)NCCc1nc(-c2nc(C(=O)NCCC[S+](C)C)cs2)cs1)[C@@H](C)O)C(OC1OC(CO)C(O)C(O)C1OC1OC(CO)C(O)C(OC(N)=O)C1O)c1cnc[nH]1 (stereo partly drawn)
inactive: dose: 2.5 mg/kg/injection, schedule: Q04DX003 (ip), vehicle: saline 120 % of control | dose: 5.0 mg/kg/injection, schedule: Q04DX003 (ip), vehicle: saline 123 % of control | dose: 20.0 mg/kg/injection, schedule: Q04DX003 (ip), vehicle: saline 108 % of control | dose: 30.0 mg/kg/injection, schedule: Q04DX003 (ip), vehicle: saline 100 % of control

CN(Cc1cnc2nc(N)nc(N)c2n1)c1ccc(C(=O)N[C@@H](CCC(=O)O)C(=O)O)cc1
inactive: dose: 0.07 mg/kg/injection, schedule: Q01DX009 (ip), vehicle: sodium bicarbonate 99 % of control | dose: 0.15 mg/kg/injection, schedule: Q01DX009 (ip), vehicle: sodium bicarbonate 123 % of control | dose: 0.3 mg/kg/injection, schedule: Q01DX009 (ip), vehicle: sodium bicarbonate 108 % of control | dose: 0.6 mg/kg/injection, schedule: Q01DX009 (ip), vehicle: sodium bicarbonate 111 % of control
